Experiments:
Xanthine oxidase (XO) = target: T1, Xanthine oxidase (XO) (Bos taurus, UniProt P80457); experiment: XO inhibitory assay (spectrophotometric quantification of uric acid formation at 295 nm); format: biochemical; details: for inhibition at 5 µM / inhibition at 30 µM: read-out: XO inhibition (%)
T1 construct: purchased Sigma-Aldrich X4875
Protocol: XO inhibitory and antioxidant assays were performed in triplicate while antiproliferative assay was conducted in quadruplicate. For each assay, at least two independent experiments were performed. An initial screening at the concentration of 30 μM for all compounds under study was performed in each in vitro study. […] Half-maximal inhibitory concentration (IC50) studies were performed for drugs used as a reference and for the most promising bis-thiobarbiturate in XO inhibitory, antioxidant, and cytotoxicity assays.
The XO inhibitory activity was evaluated by spectrophotometric quantification of uric acid formation. The 50 mM dihydrogen phosphate buffer (pH 7.4) was used to dilute all solutions. For each assay performed, 50 μL of the test solution and 50 μL of the 0.1 U/mL XO (Sigma-Aldrich X4875, St. Louis, MO, USA) solution were added in each well of an Elisa microplate (96 wells) followed by 5 min of incubation at 37 °C. […] The reaction started with the addition of 150 μL of a xanthine solution (420 μM). The absorbance was recorded at a wavelength of 295 nm every minute for 10 min. To obtain only the absorbance associated with uric acid, a solution consisting of 50 μL of the test solution, 150 μL of the xanthine solution, and 50 μL of buffer were used as blank. […] For each compound, the percentage of enzyme inhibition was calculated according to the following formula:% of XO inhibition = [1 − (ABSsample − ABSblank of sample)/ABSnegative control] × 100
(§1) All in vitro results are expressed as mean values ± standard deviation (SD) of at least two independent determinations. The difference between groups was analyzed for each assay by Student’s t-test. The IC50 values were calculated by sigmoidal fitting analysis considering a 95% confidence interval.

[1] = Antioxidant assay, DPPH method; details: 60 min
Protocol: (§2) XO inhibitory and antioxidant assays were performed in triplicate while antiproliferative assay was conducted in quadruplicate. For each assay, at least two independent experiments were performed. An initial screening at the concentration of 30 μM for all compounds under study was performed in each in vitro study. A second screening at 5 μM was performed for compounds that originated an inhibitory potential higher than 80% for the XO activity at 30 μM. Half-maximal inhibitory concentration (IC50) studies were performed for drugs used as a reference and for the most promising bis-thiobarbiturate in XO inhibitory, antioxidant, and cytotoxicity assays.
Antioxidant potential was spectrophotometrically evaluated by the 2,2-diphenyl-1-picrylhydrazyl (DPPH, Sigma-Aldrich, St. Louis, MO, USA) method. All solutions and dilutions were prepared in 99.5% ethanol before each experiment. For each assay, 100 μL of the test solution and 100 μL of DPPH solution (0.2 mM) were added to each well of a 96 wells Elisa microplate. […] After 60 min of incubation in dark at rt, the capacity of each compound to reduce DPPH was followed by measuring the absorbance at 517 nm. Ethanol was used as a negative control and Trolox as the positive control. To discount the absorbance of each compound at 517 nm, a blank was performed with 100 μL of each test compound and 100 μL of ethanol. The antioxidant capacity of each sample was calculated according to the following formula:% DPPH scavenging = [1 − (ABSsample − ABSblank of sample)/ABSnegative control] × 100
as §1

[2] = Cytotoxicity assay (MTT) on NHDF; format: cell-based, human; details: human, NHDF cells (non-tumor human dermal fibroblasts), 72 h, MTT; for viability at 72 h, 30 µM: read-out: Cytotoxicity (% cell viability at 30 µM) NHDF
Protocol: as §2
(§3) The cytotoxic potential of the compounds being studied was evaluated by quantifying the extent of the reduction of 3-(4,5-dimethylthiazol-2-yl)-2,5-diphenyltetrazolium bromide (MTT, VWR, Radnor, PA, USA) on tumor cell lines of the colon (Caco-2) and breast (MCF-7) adenocarcinoma and non-tumor human dermal fibroblasts (NHDF). All cell lines were obtained from the American Type Culture Collection (ATCC, Manassas, VA, USA) and were maintained in 75 cm^2 culture flasks in a humidified air incubator with 5% CO2 at 37 °C. NHDF cells have grown in RPMI 1640 medium (Sigma-Aldrich, St. Louis, MO, USA) supplemented with 10% fetal bovine serum (FBS), 10 mM 4-(2-hydroxyethyl)-1-piperazineethanesulfonic acid (HEPES), 2 mM L-glutamine, 1 mM sodium pyruvate, and 1% antibiotic/antimycotic (Ab: 10,000 units/mL penicillin G, […] streptomycin and 25 μg/mL amphotericin B). MCF-7 cells were cultured in high-glucose Dulbecco’s modified Eagle medium (DMEM, Sigma-Aldrich, St. Louis, MO, USA) supplemented with 10% FBS, and 1% Ab. The Caco-2 cell line was cultured in a high glucose DMEM supplemented with 20% FBS and 1% of the antibiotic mixture (Sp: 10,000 units/mL penicillin G and […] of streptomycin). For the assay, cells were seeded in 96-well plates (2 × 10^4 cells/mL) in the culture medium. After 48 h of adherence, cells were treated with the test solutions and incubated for 72 h. […] Untreated cells were used as a negative control and 5-FU as the positive control. Following incubation, the medium was removed and replaced with a fresh incomplete culture medium (without FBS and Ab or Sp) and MTT solution [5 mg/mL in phosphate buffer saline (PBS)]. After further incubation for 4 h at 37 °C, the medium with MTT was removed, formazan crystals were dissolved in DMSO, and the absorbance was read at 570 nm. Results were expressed as the relative cell proliferation in comparison with the negative control cells.
as §1

[3] = test system: NHDF cells (non-tumor human dermal fibroblasts); experiment: Cytotoxicity assay (MTT) on NHDF; format: cell-based
Protocol: as §2, §3, §1

[4] = Cytotoxicity/antiproliferative assay (MTT) on Caco-2; format: cell-based; details: human, read-out: Cytotoxicity (% cell viability at 30 µM) Caco-2
Protocol: as §2, §3, §1

[5] = Cytotoxicity/antiproliferative assay (MTT) on MCF-7; format: cell-based; details: human, MCF-7 cells (breast adenocarcinoma), read-out: Cytotoxicity (% cell viability at 30 µM) MCF-7
Protocol: as §2, §3, §1

T1 sequence (P80457 whole entry): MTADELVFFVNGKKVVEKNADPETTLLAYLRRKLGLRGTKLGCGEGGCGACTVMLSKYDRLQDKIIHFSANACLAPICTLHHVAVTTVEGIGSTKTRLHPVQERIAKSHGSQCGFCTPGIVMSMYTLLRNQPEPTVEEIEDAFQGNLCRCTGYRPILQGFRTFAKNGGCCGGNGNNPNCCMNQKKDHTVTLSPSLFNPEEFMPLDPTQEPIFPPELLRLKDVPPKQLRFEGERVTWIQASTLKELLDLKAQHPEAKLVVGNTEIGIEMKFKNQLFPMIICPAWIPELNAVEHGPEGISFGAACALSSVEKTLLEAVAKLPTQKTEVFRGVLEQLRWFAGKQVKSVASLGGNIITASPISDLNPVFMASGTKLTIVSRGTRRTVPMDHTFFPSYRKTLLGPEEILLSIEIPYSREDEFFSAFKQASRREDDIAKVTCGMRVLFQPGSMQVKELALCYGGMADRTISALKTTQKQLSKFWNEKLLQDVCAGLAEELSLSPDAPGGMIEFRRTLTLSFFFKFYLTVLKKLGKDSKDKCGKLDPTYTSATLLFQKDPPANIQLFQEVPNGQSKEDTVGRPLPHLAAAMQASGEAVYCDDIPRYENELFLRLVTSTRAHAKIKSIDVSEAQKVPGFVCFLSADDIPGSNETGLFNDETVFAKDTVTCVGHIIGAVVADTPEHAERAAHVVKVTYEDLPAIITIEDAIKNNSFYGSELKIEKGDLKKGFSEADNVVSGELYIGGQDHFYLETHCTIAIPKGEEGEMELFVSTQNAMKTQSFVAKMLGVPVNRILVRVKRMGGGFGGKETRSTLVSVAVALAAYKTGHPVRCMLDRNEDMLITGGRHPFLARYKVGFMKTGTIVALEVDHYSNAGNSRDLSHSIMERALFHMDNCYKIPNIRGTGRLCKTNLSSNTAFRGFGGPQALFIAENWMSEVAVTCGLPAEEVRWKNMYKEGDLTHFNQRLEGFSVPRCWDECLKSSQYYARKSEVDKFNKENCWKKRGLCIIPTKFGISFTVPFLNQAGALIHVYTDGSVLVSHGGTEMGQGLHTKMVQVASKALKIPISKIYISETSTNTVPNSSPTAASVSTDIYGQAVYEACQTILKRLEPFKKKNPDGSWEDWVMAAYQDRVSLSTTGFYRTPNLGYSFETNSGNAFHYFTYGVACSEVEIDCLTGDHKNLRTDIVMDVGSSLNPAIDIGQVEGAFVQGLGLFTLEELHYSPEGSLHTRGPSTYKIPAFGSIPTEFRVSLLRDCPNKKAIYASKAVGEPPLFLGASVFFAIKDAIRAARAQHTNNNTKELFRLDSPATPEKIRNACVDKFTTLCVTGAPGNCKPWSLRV

Structure (SMILES): CCn1c(O)c(C(c2ccc(Br)cc2)c2c(O)n(CC)c(=S)n(CC)c2=O)c(=O)n(CC)c1=S [Compound 11, 5,5′-((4-Bromophenyl)methylene)bis(1,3-diethyl-6-hydroxy-2-thioxo-2,3-dihydropyrimidin-4(1H)-one)]
- IC50 (Xanthine oxidase (XO)): 1.79 ± 0.07 µM
- inhibition at 5 µM (Xanthine oxidase (XO)): 80.9%
- inhibition at 30 µM (Xanthine oxidase (XO)): 95.7%
- DPPH (% scavenging at 30 µM) [1]: 57.25 ± 0.98%
- IC50 ([1]; read-out: DPPH Scavenging IC50): 24.7 ± 0.88 µM
- viability at 72 h, 30 µM [2]: 94.3 ± 7.84%
- IC50 at 72 h [2]: 93.2 ± 5.54 µM
- selectivity index for DPPH scavenging activity ([3]; NHDF cytotoxicity versus DPPH scavenging): 3.77
- selectivity index for XO inhibition ([3]; NHDF cytotoxicity versus XO inhibition): 52.04
- viability at 72 h, 30 µM [4]: 72.3 ± 9.76%
- viability at 72 h, 30 µM [5]: 92.2 ± 3.68%

Structure (SMILES): CCn1c(O)c(C(c2ccc([N+](=O)[O-])cc2[N+](=O)[O-])c2c(O)n(CC)c(=S)n(CC)c2=O)c(=O)n(CC)c1=S [Compound 15, 5,5′-((2,4-Dinitrophenyl)methylene)bis(1,3-diethyl-6-hydroxy-2-thioxo-2,3-dihydropyrimidin-4(1H)-one)]
- inhibition at 30 µM (Xanthine oxidase (XO)): 14.9%
- DPPH (% scavenging at 30 µM) [1]: 32.33 ± 0.48%
- viability at 72 h, 30 µM [2]: 91.2 ± 7.77%
- viability at 72 h, 30 µM [4]: 96.9 ± 4.73%
- viability at 72 h, 30 µM [5]: 91.2 ± 4.26%
- melting point: 169 to 170 °C

Structure (SMILES): CCn1c(O)c(C(c2cc(O)ccc2[N+](=O)[O-])c2c(O)n(CC)c(=S)n(CC)c2=O)c(=O)n(CC)c1=S [Compound 16, 5,5′-((5-Hydroxy-2-nitrophenyl)methylene)bis(1,3-diethyl-6-hydroxy-2-thioxo-2,3-dihydropyrimidin-4(1H)-one)]
- inhibition at 30 µM (Xanthine oxidase (XO)): 61.4%
- DPPH (% scavenging at 30 µM) [1]: 31.35 ± 0.91%
- viability at 72 h, 30 µM [2]: 60.7 ± 1.72%
- viability at 72 h, 30 µM [4]: 95.4 ± 3.3%
- viability at 72 h, 30 µM [5]: 91.1 ± 2%
- melting point: 167 to 169 °C

Structure (SMILES): CCn1c(O)c(C(c2cc3c(cc2[N+](=O)[O-])OCO3)c2c(O)n(CC)c(=S)n(CC)c2=O)c(=O)n(CC)c1=S [Compound 17, 5,5′-((6-Nitrobenzo[d][1,3]dioxol-5-yl)methylene)bis(1,3-diethyl-6-hydroxy-2-thioxo-2,3-dihydropyrimidin-4(1H)-one)]
- inhibition at 5 µM (Xanthine oxidase (XO)): 55.2 ± 1.63%
- inhibition at 30 µM (Xanthine oxidase (XO)): 90.8 ± 2.87%
- DPPH (% scavenging at 30 µM) [1]: 40.90 ± 0.65%
- viability at 72 h, 30 µM [2]: 68.9 ± 9.33%
- viability at 72 h, 30 µM [4]: 88.7 ± 7.85%
- viability at 72 h, 30 µM [5]: 86.6 ± 5.87%
- melting point: 148 to 149 °C

Structure (SMILES): CCn1c(O)c(C(C(C)=Cc2ccccc2)c2c(O)n(CC)c(=S)n(CC)c2=O)c(=O)n(CC)c1=S [Compound 18, 5,5′-(2-Methyl-3-phenylprop-2-ene-1,1-diyl)bis(1,3-diethyl-6-hydroxy-2-thioxo-2,3-dihydropyrimidin-4(1H)-one)]
- inhibition at 5 µM (Xanthine oxidase (XO)): 63.4 ± 2.1%
- inhibition at 30 µM (Xanthine oxidase (XO)): 98.85 ± 0.82%
- DPPH (% scavenging at 30 µM) [1]: 31.04 ± 0.66%
- viability at 72 h, 30 µM [2]: 86.5 ± 2.38%
- viability at 72 h, 30 µM [4]: 94.7 ± 7.19%
- viability at 72 h, 30 µM [5]: 88.3 ± 3.29%
- melting point: 145 to 146 °C

Structure (SMILES): CCn1c(O)c(C(c2cccnc2)c2c(O)n(CC)c(=S)n(CC)c2=O)c(=O)n(CC)c1=S [Compound 19, 5,5′-(Pyridin-3-ylmethylene)bis(1,3-diethyl-6-hydroxy-2-thioxo-2,3-dihydropyrimidin-4(1H)-one)]
- inhibition at 5 µM (Xanthine oxidase (XO)): 67.3 ± 1.27%
- inhibition at 30 µM (Xanthine oxidase (XO)): 91.7 ± 1.87%
- DPPH (% scavenging at 30 µM) [1]: 3.83 ± 2.44%
- viability at 72 h, 30 µM [2]: 81 ± 3.57%
- viability at 72 h, 30 µM [4]: 80.7 ± 13%
- viability at 72 h, 30 µM [5]: 93.7 ± 5.68%
- melting point: 253 to 254 °C
